Experimental findings from patent US20220033397A1, “PHARMACEUTICAL COMPOUNDS AND THEIR USE AS INHIBITORS OF UBIQUITIN SPECIFIC PROTEASE 19 (USP19)” (ALMAC DISCOVERY LIMITED, priority 2018, published 2022) are described below.

In this assay the target is T1, Full-length USP19 (Homo sapiens, UniProt O94966).
T1 construct: Full-length USP19 was purchased from Boston Biochem (E-576); purchased Boston Biochem E-576
T1 sequence (O94966 1-1318): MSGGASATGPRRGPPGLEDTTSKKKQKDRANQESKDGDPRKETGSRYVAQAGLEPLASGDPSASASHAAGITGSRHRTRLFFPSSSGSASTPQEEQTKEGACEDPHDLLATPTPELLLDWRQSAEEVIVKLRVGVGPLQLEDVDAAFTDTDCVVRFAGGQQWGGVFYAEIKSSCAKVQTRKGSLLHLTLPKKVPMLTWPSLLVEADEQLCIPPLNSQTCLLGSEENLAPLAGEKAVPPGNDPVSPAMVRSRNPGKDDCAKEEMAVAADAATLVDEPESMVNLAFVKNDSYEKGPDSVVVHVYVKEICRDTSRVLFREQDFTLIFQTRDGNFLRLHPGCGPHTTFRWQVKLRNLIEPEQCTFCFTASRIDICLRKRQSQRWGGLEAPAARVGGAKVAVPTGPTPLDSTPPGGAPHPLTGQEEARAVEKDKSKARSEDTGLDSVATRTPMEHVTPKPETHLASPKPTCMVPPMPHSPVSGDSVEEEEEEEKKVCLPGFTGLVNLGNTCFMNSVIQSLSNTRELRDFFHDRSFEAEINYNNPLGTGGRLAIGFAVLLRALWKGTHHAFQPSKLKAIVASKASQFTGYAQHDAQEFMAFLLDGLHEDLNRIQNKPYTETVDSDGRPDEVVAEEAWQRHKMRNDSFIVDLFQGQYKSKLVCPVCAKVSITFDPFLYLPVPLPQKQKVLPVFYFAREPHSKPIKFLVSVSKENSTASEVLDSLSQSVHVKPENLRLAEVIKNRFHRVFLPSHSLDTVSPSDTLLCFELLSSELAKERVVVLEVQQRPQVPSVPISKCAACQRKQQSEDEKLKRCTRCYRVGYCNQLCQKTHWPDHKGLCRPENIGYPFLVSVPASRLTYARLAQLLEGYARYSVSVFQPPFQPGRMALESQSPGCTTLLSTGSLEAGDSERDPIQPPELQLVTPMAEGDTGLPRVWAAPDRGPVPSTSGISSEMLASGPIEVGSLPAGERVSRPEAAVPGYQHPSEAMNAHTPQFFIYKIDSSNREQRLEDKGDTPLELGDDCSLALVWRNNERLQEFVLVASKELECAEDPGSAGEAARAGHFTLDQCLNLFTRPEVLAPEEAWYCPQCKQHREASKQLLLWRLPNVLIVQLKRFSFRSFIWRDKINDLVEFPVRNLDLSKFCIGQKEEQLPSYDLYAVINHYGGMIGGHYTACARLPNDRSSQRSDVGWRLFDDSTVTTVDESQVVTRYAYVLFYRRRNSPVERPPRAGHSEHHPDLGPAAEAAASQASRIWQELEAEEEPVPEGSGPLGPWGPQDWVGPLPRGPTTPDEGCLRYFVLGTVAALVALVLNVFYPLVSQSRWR
As to the kind of experiment: USP19 fluorescence polarisation (FP) homogeneous assay with Ubiquitin-Lys-TAMRA substrate. It is filed as biochemical. The conditions noted are these: 2.5 nM USP19, 30 min pre-incubation, average of at least two duplicate experiments. The method, then: Unless otherwise stated, all other reagents were purchased from Sigma. Enzymatic reactions were conducted in black flat bottom polystyrene 384-well plates (Nunc) and 30 μL total volume. […] Inhibitors were stored as 10 mM DMSO stocks in an inert environment (low humidity, dark, low oxygen, room temperature) using the Storage Pod System and serial dilutions were prepared in buffer just prior to the assay (from 200 μM to 2 μM, 8-18 data point curve).
Following incubation at RT for 30 min, the enzymatic reactions were initiated by dispensing the Ub substrate (500 nM, 10 μL). FP was measured every 15 min over a period of 90 min (within the linear range of the assay) using a Synergy 4 plate reader (BioTek) exciting at 530 nm and measuring the amount of parallel and perpendicular light at 575 nm. The FP signal was subsequently normalised to the no compound control.
(Polarisation of emitted light reports the rotation of a fluorescent probe.)

For the compound `C[C@H](CC(=O)N1CCC(O)(CN2CCN(c3ccccc3F)CC2=O)CC1)c1ccccc1` [Example 24, (R)-4-(2-Fluorophenyl)-1-((4-hydroxy-1-(3-phenylbutanoyl)piperidin-4-yl)methyl)piperazin-2-one], the IC50 lay in the range of 50 to 250 µM.
The result for `CN(C)C(=O)C1CN(C[C@@]2(O)CCN(C(=O)[C@H](CO)CC3CCCCC3)CC2(C)C)C(=O)CC1c1ccccc1` (stereo partly drawn) [Example 25, 1-(((R)-1-((S)-3-Cyclohexyl-2-(hydroxymethyl)propanoyl)-4-hydroxy-3,3-dimethylpiperidin-4-yl)methyl)-N,N-dimethyl-6-oxo-4-phenylpiperidine-3-carboxamide] reads 5 to 50 µM.
The result for `CN(C)C(=O)C1CN(C[C@]2(O)CCN(C(=O)[C@H](CO)CC3CCCCC3)CC2(C)C)C(=O)CC1c1ccccc1` (stereo partly drawn) [Example 26, 1-(((S)-1-((S)-3-Cyclohexyl-2-(hydroxymethyl)propanoyl)-4-hydroxy-3,3-dimethylpiperidin-4-yl)methyl)-N,N-dimethyl-6-oxo-4-phenylpiperidine-3-carboxamide] reads under 0.5 µM.
The result for `C[C@H](CC1CCCCC1)C(=O)N1CCC(O)(CN2Cc3ccccc3C2=O)C(C)(C)C1` (stereo partly drawn) [Example 27, 2-((1-((R)-3-Cyclohexyl-2-methylpropanoyl)-4-hydroxy-3,3-dimethylpiperidin-4-yl)methyl)isoindolin-1-one] reads 5 to 50 µM.
Turning to `C[C@H](CC1CCCCC1)C(=O)N1CCC(O)(CN2CC(Cc3ccccc3)CC2=O)C(C)(C)C1` (stereo partly drawn) [Example 30, 4-Benzyl-1-((1-((R)-3-cyclohexyl-2-methylpropanoyl)-4-hydroxy-3,3-dimethylpiperidin-4-yl)methyl)pyrrolidin-2-one], the IC50 was 0.5 to 5 µM.
The result for `C[C@H](CC1CCCCC1)C(=O)N1CCC(O)(CN2CCOCC2=O)C2(CCCC2)C1` (stereo partly drawn) [Example 31, 4-((7-((R)-3-Cyclohexyl-2-methylpropanoyl)-10-hydroxy-7-azaspiro[4.5]decan-10-yl)methyl)morpholin-3-one] reads under 0.5 µM; that for `C[C@H](CC(F)(F)F)C(=O)N1CCC(O)(CN2CCOCC2=O)C2(CCCC2)C1` (stereo partly drawn) [Example 32, 4-((10-Hydroxy-7-((R)-4,4,4-trifluoro-2-methylbutanoyl)-7-azaspiro[4.5]decan-10-yl)methyl)morpholin-3-one], 50 to 250 µM; that for `CCCn1c(=O)n(CC2(O)CCN(C(=O)[C@H](C)CC3CCCCC3)CC23CCCC3)c2ccccc21` (stereo partly drawn) [Example 33, 1-((7-((R)-3-Cyclohexyl-2-methylpropanoyl)-10-hydroxy-7-azaspiro[4.5]decan-10-yl)methyl)-3-propyl-1,3-dihydro-2H-benzo[d]imidazol-2-one], 5 to 50 µM.
In the case of `C[C@H](CC1CCCCC1)C(=O)N1CCC(O)(CN2CC(CO)CC2=O)C2(CCCC2)C1` (stereo partly drawn) [Example 34, 1-((7-((R)-3-Cyclohexyl-2-methylpropanoyl)-10-hydroxy-7-azaspiro[4.5]decan-10-yl)methyl)-4-(hydroxymethyl)pyrrolidin-2-one], the IC50 lay within 5 to 50 µM.
Consider `C[C@H](CC1CCCCC1)C(=O)N1CCC(O)(CN2C(=O)COc3cccnc32)C2(CCCC2)C1` (stereo partly drawn) [Example 35, 4-((7-((R)-3-Cyclohexyl-2-methylpropanoyl)-10-hydroxy-7-azaspiro[4.5]decan-10-yl)methyl)-2H-pyrido[3,2-b][1,4]oxazin-3(4H)-one], for which the IC50 fell in the range of 0.5 to 5 µM.
The result for `C[C@H](CC1CCCCC1)C(=O)N1CCC(O)(CN2C(=O)C(=O)c3ccccc32)C2(CCCC2)C1` (stereo partly drawn) [Example 36, 1-((7-((R)-3-Cyclohexyl-2-methylpropanoyl)-10-hydroxy-7-azaspiro[4.5]decan-10-yl)methyl)indoline-2,3-dione] reads 5 to 50 µM.
The result for `C[C@H](CC1CCCCC1)C(=O)N1CCC(O)(CN2C(=O)COc3c(N)cccc32)C2(CCCC2)C1` (stereo partly drawn) [Example 37, 8-Amino-4-((7-((R)-3-cyclohexyl-2-methylpropanoyl)-10-hydroxy-7-azaspiro[4.5]decan-10-yl)methyl)-2H-benzo[b][1,4]oxazin-3(4H)-one] reads 0.5 to 5 µM; that for `C[C@H](CC1CCCCC1)C(=O)N1CCC(O)(CN2CCN(C(=O)OC(C)(C)C)CC2=O)C2(CCCC2)C1` (stereo partly drawn) [Example 38, tert-Butyl 4-((7-((R)-3-cyclohexyl-2-methylpropanoyl)-10-hydroxy-7-azaspiro[4.5]decan-10-yl)methyl)-3-oxopiperazine-1-carboxylate], under 0.5 µM; that for `C[C@H](CC1CCCCC1)C(=O)N1CCC(O)(CN2CCNCC2=O)C2(CCCC2)C1` (some centres unmarked) [Example 39], 0.5 to 5 µM.
The result for `C[C@H](CC1CCCCC1)C(=O)N1CCC(O)(CN2CC(Cc3ccccc3)CC2=O)C2(CCCC2)C1` (stereo partly drawn) [Example 41, 4-Benzyl-1-((7-((R)-3-cyclohexyl-2-methylpropanoyl)-10-hydroxy-7-azaspiro[4.5]decan-10-yl)methyl)pyrrolidin-2-one] reads 0.5 to 5 µM; that for `CC(CC1CCCCC1)C(=O)N1CCC(O)(CN2C(=O)c3ccccc3C2=O)C(C)(C)C1` (centres unmarked) [Example 42, 2-((1-(3-Cyclohexyl-2-methylpropanoyl)-4-hydroxy-3,3-dimethylpiperidin-4-yl)methyl)isoindoline-1,3-dione], 50 to 250 µM; that for `CC(CC1CCCCC1)C(=O)N1CCC(O)(CN2CC(Cc3ccccc3)CC2=O)CC1` (centres unmarked) [Example 43, 4-Benzyl-1-((1-(3-cyclohexyl-2-methylpropanoyl)-4-hydroxypiperidin-4-yl)methyl)pyrrolidin-2-one], 5 to 50 µM.
On to `CC(Cc1ccccc1)C(=O)N1CCC(O)(CN2CC(Cc3ccccc3)CC2=O)C(C)(C)C1` (centres unmarked) [Example 44, 4-Benzyl-1-((4-hydroxy-3,3-dimethyl-1-(2-methyl-3-phenylpropanoyl)piperidin-4-yl)methyl)pyrrolidin-2-one], for which the IC50 fell in the range of 50 to 250 µM.
The result for `CC1(C)CN(C(=O)CCC2CCCCC2)CCC1(O)CN1CC(Cc2ccccc2)CC1=O` (centres unmarked) [Example 45, 4-Benzyl-1-((1-(3-cyclohexylpropanoyl)-4-hydroxy-3,3-dimethylpiperidin-4-yl)methyl)pyrrolidin-2-one] reads 50 to 250 µM.
As to `CC(CC1CCCCC1)C(=O)N1CCC(O)(CN2CC3(CCCCC3)CC2=O)C(C)(C)C1` (centres unmarked) [Example 46, 2-((1-(3-Cyclohexyl-2-methylpropanoyl)-4-hydroxy-3,3-dimethylpiperidin-4-yl)methyl)-2-azaspiro[4.5]decan-3-one], the IC50 lay in the range of 50 to 250 µM.
The result for `C[C@H](CC1CCCCC1)C(=O)N1CCC(O)(CN2CCN(C(=O)OCc3ccccc3)CC2=O)C2(CCCC2)C1` (stereo partly drawn) [Example 47, Benzyl 4-((7-((R)-3-cyclohexyl-2-methylpropanoyl)-10-hydroxy-7-azaspiro[4.5]decan-10-yl)methyl)-3-oxopiperazine-1-carboxylate] reads 0.5 to 5 µM.
The result for `CC(=O)N1CCN(CC2(O)CCN(C(=O)[C@H](C)CC3CCCCC3)CC23CCCC3)C(=O)C1` (stereo partly drawn) [Example 48, 4-Acetyl-1-((7-((R)-3-cyclohexyl-2-methylpropanoyl)-10-hydroxy-7-azaspiro[4.5]decan-10-yl)methyl)piperazin-2-one] reads under 0.5 µM; that for `C[C@H](CC1CCCCC1)C(=O)N1CCC(O)(CN2CCN(S(C)(=O)=O)CC2=O)C2(CCCC2)C1` (stereo partly drawn) [Example 49, 1-((7-((R)-3-Cyclohexyl-2-methylpropanoyl)-10-hydroxy-7-azaspiro[4.5]decan-10-yl)methyl)-4-(methylsulfonyl)piperazin-2-one], 0.5 to 5 µM.

One may read the IC50 as the point on the concentration scale where inhibition reaches its midpoint.
